For this experiment, the target named is T1, MAGL (Homo sapiens, UniProt Q99685).
T1 sequence (Q99685 1-303): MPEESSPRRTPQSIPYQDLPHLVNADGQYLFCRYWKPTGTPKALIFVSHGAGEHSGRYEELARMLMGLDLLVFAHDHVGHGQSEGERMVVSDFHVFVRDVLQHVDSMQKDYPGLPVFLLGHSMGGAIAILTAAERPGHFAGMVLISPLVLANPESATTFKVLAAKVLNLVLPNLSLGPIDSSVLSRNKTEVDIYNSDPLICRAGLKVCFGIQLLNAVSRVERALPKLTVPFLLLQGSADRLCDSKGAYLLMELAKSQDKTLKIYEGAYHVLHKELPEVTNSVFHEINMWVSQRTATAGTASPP
Put plainly: In vitro competitive activity-based protein profiling, PC3 human cell membrane proteomes. It is filed as biochemical. Details: endogenous in cells; host or cells: PC3 human cells (membrane proteome). To be noted: human PC3 membrane proteome. How it is done:
PC3 human cell membrane proteomes (50 μL, 2.0 mg/mL total protein concentration) were preincubated with varying concentrations of inhibitors at 37° C. After 30 min, the ABPP probe JW912-Bodipy (1.0 μL, 50 μM in DMSO) was added and the mixture was incubated for 30 min at room temperature. Reactions were quenched with SDS loading buffer (15 μL-4×) and run on SDS-PAGE. Following gel imaging, serine hydrolase activity was determined by measuring fluorescent intensity of gel bands corresponding to MAGL using ImageJ 1.43u software. Intensities were converted to percent enzyme activity by normalizing to DMSO controls. IC50 values were determined by fitting percent enzyme activities to a non-linear regression, 4-parameter, sigmoidal dose response function in Prism GraphPad.
For `N#CC1CCN(C(=O)C2CC23CCN(C(=O)OC(C(F)(F)F)C(F)(F)F)CC3)CC1` (single isomer, unassigned) [Example 123, 1,1,1,3,3,3-hexafluoropropan-2-yl (R or S)-1-(4-cyanopiperidine-1-carbonyl)-6-azaspiro[2.5]octane-6-carboxylate], the IC50 was 0.16 µM.
Consider `N#CC1CCN(C(=O)C2CC23CCN(C(=O)OC(C(F)(F)F)C(F)(F)F)CC3)CC1` (single isomer, unassigned) [Example 124, 1,1,1,3,3,3-hexafluoropropan-2-yl (R or S)-1-(4-cyanopiperidine-1-carbonyl)-6-azaspiro[2.5]octane-6-carboxylate], for which the concentration for half-maximal inhibition (IC50) came to 0.67 µM. Compared with the last compound, the IC50 is about 4.2-fold higher.
In turn, `Cn1ccc(NC(=O)C2CC23CCN(C(=O)OC(C(F)(F)F)C(F)(F)F)CC3)n1` (single isomer, unassigned) [Example 126, 1,1,1,3,3,3-hexafluoropropan-2-yl (R or S)-1-((1-methyl-1H-pyrazol-3-yl)carbamoyl)-6-azaspiro[2.5]octane-6-carboxylate] came in with a half-maximal inhibitory concentration (IC50) of 0.23 µM.
`CC1(NC(=O)C2CC23CCN(C(=O)OC(C(F)(F)F)C(F)(F)F)CC3)CCOCC1` (single isomer, unassigned) [Example 133, 1,1,1,3,3,3-hexafluoropropan-2-yl (R or S)-1-((4-methyltetrahydro-2H-pyran-4-yl)carbamoyl)-6-azaspiro[2.5]octane-6-carboxylate] came in with an IC50 of 1.6 µM. This IC50 lies about 7-fold higher than the previous one.
Then `Cn1nccc1NC(=O)C1CC12CCN(C(=O)OC(C(F)(F)F)C(F)(F)F)CC2` (single isomer, unassigned) [Example 136, 1,1,1,3,3,3-hexafluoropropan-2-yl (R or S)-1-((1-methyl-1H-pyrazol-5-yl)carbamoyl)-6-azaspiro[2.5]octane-6-carboxylate], with 0.34 µM; and `O=C(Nc1nccs1)C1CC12CCN(C(=O)OC(C(F)(F)F)C(F)(F)F)CC2` (single isomer, unassigned) [Example 139, 1,1,1,3,3,3-hexafluoropropan-2-yl (R or S)-1-(thiazol-2-ylcarbamoyl)-6-azaspiro[2.5]octane-6-carboxylate], with 0.11 µM; and `O=C(Nc1ccccc1)[C@H]1CC12CCN(C(=O)OC(C(F)(F)F)C(F)(F)F)CC2` (single isomer, unassigned) [Example 141], with 0.00091 µM.
Then `O=C(Nc1ccccc1)[C@@H]1CC12CCN(C(=O)OC(C(F)(F)F)C(F)(F)F)CC2` (single isomer, unassigned) [Example 142], with 0.13 µM.
Regarding `Cc1ccc(NC(=O)C2CC23CCN(C(=O)OC(C(F)(F)F)C(F)(F)F)CC3)cc1` (single isomer, unassigned) [Example 144, 1,1,1,3,3,3-hexafluoropropan-2-yl (R or S)-1-(p-tolylcarbamoyl)-6-azaspiro[2.5]octane-6-carboxylate], the IC50 is 0.0052 µM. This IC50 lies about 25-fold lower than the previous one.
In turn, `Cc1ccc(NC(=O)C2CC23CCN(C(=O)OC(C(F)(F)F)C(F)(F)F)CC3)cc1` (single isomer, unassigned) [Example 145, 1,1,1,3,3,3-hexafluoropropan-2-yl (R or S)-1-(p-tolylcarbamoyl)-6-azaspiro[2.5]octane-6-carboxylate] gave an IC50 of 0.27 µM. Against the preceding compound, the IC50 is about 52-fold higher.
Then `O=C(Nc1cccc(F)c1)C1CC12CCN(C(=O)OC(C(F)(F)F)C(F)(F)F)CC2` (single isomer, unassigned) [Example 147, 1,1,1,3,3,3-hexafluoropropan-2-yl (R or S)-1-((3-fluorophenyl)carbamoyl)-6-azaspiro[2.5]octane-6-carboxylate], with 0.0018 µM.
`O=C(Nc1cccc(F)c1)C1CC12CCN(C(=O)OC(C(F)(F)F)C(F)(F)F)CC2` (single isomer, unassigned) [Example 148, 1,1,1,3,3,3-hexafluoropropan-2-yl (R or S)-1-((3-fluorophenyl)carbamoyl)-6-azaspiro[2.5]octane-6-carboxylate] displayed a 50% inhibitory concentration (IC50) of 0.091 µM. Compared with the last compound, the IC50 is about 51-fold higher.
In turn, `O=C(NCc1ccccc1)[C@@H]1CC12CCN(C(=O)OC(C(F)(F)F)C(F)(F)F)CC2` (single isomer, unassigned) [Example 151] returned a half-maximal inhibitory concentration (IC50) of 0.031 µM.
`O=C(NCc1cncnc1)C1CC12CCN(C(=O)OC(C(F)(F)F)C(F)(F)F)CC2` (single isomer, unassigned) [Example 153, 1,1,1,3,3,3-hexafluoropropan-2-yl (R or S)-1-((pyrimidin-5-ylmethyl)carbamoyl)-6-azaspiro[2.5]octane-6-carboxylate] came in with an IC50 of 0.077 µM.
Then `O=C(NCc1cncnc1)C1CC12CCN(C(=O)OC(C(F)(F)F)C(F)(F)F)CC2` (single isomer, unassigned) [Example 154, 1,1,1,3,3,3-hexafluoropropan-2-yl (R or S)-1-((pyrimidin-5-ylmethyl)carbamoyl)-6-azaspiro[2.5]octane-6-carboxylate], with 0.86 µM; and `O=C(NCc1cccnn1)C1CC12CCN(C(=O)OC(C(F)(F)F)C(F)(F)F)CC2` (single isomer, unassigned) [Example 156, 1,1,1,3,3,3-hexafluoropropan-2-yl (R or S)-1-((pyridazin-3-ylmethyl)carbamoyl)-6-azaspiro[2.5]octane-6-carboxylate], with 0.45 µM.
`O=C(NCc1cccnn1)C1CC12CCN(C(=O)OC(C(F)(F)F)C(F)(F)F)CC2` (single isomer, unassigned) [Example 157] showed a concentration for half-maximal inhibition (IC50) of 0.23 µM. Against the preceding compound, the IC50 is about 2-fold lower.
`O=C(NC1CC2(COC2)C1)C1CC12CCN(C(=O)OC(C(F)(F)F)C(F)(F)F)CC2` (single isomer, unassigned) [Example 159, 1,1,1,3,3,3-hexafluoropropan-2-yl (R or S)-1-((2-oxaspiro[3.3]heptan-6-yl)carbamoyl)-6-azaspiro[2.5]octane-6-carboxylate] registered an IC50 of 0.043 µM.
For the compound `O=C(NC1CC2(COC2)C1)C1CC12CCN(C(=O)OC(C(F)(F)F)C(F)(F)F)CC2` (single isomer, unassigned) [Example 160, 1,1,1,3,3,3-hexafluoropropan-2-yl (R or S)-1-((2-oxaspiro[3.3]heptan-6-yl)carbamoyl)-6-azaspiro[2.5]octane-6-carboxylate], the IC50 stood at 0.59 µM. This IC50 lies about 14-fold higher than the previous one.
For the compound `O=C(Nc1ccc(C2CC2)nc1)[C@@H]1CC12CCN(C(=O)OC(C(F)(F)F)C(F)(F)F)CC2` (single isomer, unassigned) [Example 162], the IC50 amounted to 0.16 µM.
`O=C(Nc1ccc(C2CC2)nc1)[C@H]1CC12CCN(C(=O)OC(C(F)(F)F)C(F)(F)F)CC2` (single isomer, unassigned) [Example 163]: the half-maximal inhibitory concentration (IC50) is 0.001 µM.
Compound `CC(C)Oc1ccc(NC(=O)C2CC23CCN(C(=O)OC(C(F)(F)F)C(F)(F)F)CC3)cn1` (single isomer, unassigned) [Example 165, 1,1,1,3,3,3-hexafluoropropan-2-yl (R or S)-1-((6-isopropoxypyridin-3-yl)carbamoyl)-6-azaspiro[2.5]octane-6-carboxylate] had an IC50 of 0.0014 µM.
Turning to `CC(C)Oc1ccc(NC(=O)C2CC23CCN(C(=O)OC(C(F)(F)F)C(F)(F)F)CC3)cn1` (single isomer, unassigned) [Example 166, 1,1,1,3,3,3-hexafluoropropan-2-yl (R or S)-1-((6-isopropoxypyridin-3-yl)carbamoyl)-6-azaspiro[2.5]octane-6-carboxylate], the IC50 amounted to 0.13 µM.
Compound `CC1(CNC(=O)C2CC23CCN(C(=O)OC(C(F)(F)F)C(F)(F)F)CC3)CCOCC1` (single isomer, unassigned) [Example 169, 1,1,1,3,3,3-hexafluoropropan-2-yl (R or S)-1-(((4-methyltetrahydro-2H-pyran-4-yl)methyl)carbamoyl)-6-azaspiro[2.5]octane-6-carboxylate] came in with an IC50 of 0.21 µM.
With `CC(=O)Nc1ccc(NC(=O)C2CC23CCN(C(=O)OC(C(F)(F)F)C(F)(F)F)CC3)cn1` (single isomer, unassigned) [Example 171, 1,1,1,3,3,3-hexafluoropropan-2-yl (R or S)-1-((6-acetamidopyridin-3-yl)carbamoyl)-6-azaspiro[2.5]octane-6-carboxylate], the IC50 came out at 0.0025 µM.
Then `CC(=O)Nc1ccc(NC(=O)C2CC23CCN(C(=O)OC(C(F)(F)F)C(F)(F)F)CC3)cn1` (single isomer, unassigned) [Example 172, 1,1,1,3,3,3-hexafluoropropan-2-yl (R or S)-1-((6-acetamidopyridin-3-yl)carbamoyl)-6-azaspiro[2.5]octane-6-carboxylate], with 0.13 µM.
For `NC(=O)c1ccc(NC(=O)[C@@H]2CC23CCN(C(=O)OC(C(F)(F)F)C(F)(F)F)CC3)cn1` (single isomer, unassigned) [Example 174], the half-maximal inhibitory concentration (IC50) worked out at 0.22 µM.
Then `NC(=O)c1ccc(NC(=O)[C@H]2CC23CCN(C(=O)OC(C(F)(F)F)C(F)(F)F)CC3)cn1` (single isomer, unassigned) [Example 175], with 0.0014 µM; and `O=C(Nc1ccon1)C1CC12CCN(C(=O)OC(C(F)(F)F)C(F)(F)F)CC2` (single isomer, unassigned) [Example 177, 1,1,1,3,3,3-hexafluoropropan-2-yl (R or S)-1-(isoxazol-3-ylcarbamoyl)-6-azaspiro[2.5]octane-6-carboxylate], with 0.29 µM.

The values above are taken from US20240018120A1, “MAGL INHIBITORS” (H. LUNDBECK A/S, priority 2020, published 2024).
